Reference: patent US20180305329A1, “XANTHINE COMPOUND AND USE THEREOF” (SUMITOMO CHEMICAL COMPANY, LIMITED, priority 2015, published 2018)

Columns and labels:
[1] = Spectroscopic properties: quantum efficiency (QE-1100); format: physicochemical; details: fluorescence
Description: Quantum Efficiency (QE): QE-1100 (Otsuka Electronics Co., Ltd.)

human CYP2E1 = target: T1, human CYP2E1 (Homo sapiens, UniProt P05181); experiment: Metabolism test with recombinant CYP microsomes (molecular species selectivity); format: in vitro ADME; details: human CYP2E1 Supersomes, CYP 2 pmol; 3 μM compound (2); 1 mM NADPH; pH 7.4; 37° C., 20 minutes; mean ± SD
T1 construct: purchased Nippon BD (BD Supersomes); host or cells: recombinant insect cells (microsomes)
T1 sequence (P05181 whole entry): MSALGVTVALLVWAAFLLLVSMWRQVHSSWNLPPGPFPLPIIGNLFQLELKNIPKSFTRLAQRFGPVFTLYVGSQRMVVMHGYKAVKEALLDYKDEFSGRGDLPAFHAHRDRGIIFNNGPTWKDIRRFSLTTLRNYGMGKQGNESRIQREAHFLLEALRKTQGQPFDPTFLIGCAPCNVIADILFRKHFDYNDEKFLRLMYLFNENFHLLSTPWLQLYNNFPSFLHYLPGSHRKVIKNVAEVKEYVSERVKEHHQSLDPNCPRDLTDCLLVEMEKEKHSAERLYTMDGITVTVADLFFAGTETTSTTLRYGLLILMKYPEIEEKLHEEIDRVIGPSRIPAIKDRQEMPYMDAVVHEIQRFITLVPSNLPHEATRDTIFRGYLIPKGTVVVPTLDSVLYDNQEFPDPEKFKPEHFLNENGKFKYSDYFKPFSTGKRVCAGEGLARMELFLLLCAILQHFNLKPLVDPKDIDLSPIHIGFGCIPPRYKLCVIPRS
Protocol: (§1) A 100 mM phosphate buffer solution (pH 7.4) containing 3 μM of the compound (2) synthesized according to Example 2, 1 mM of NADPH (Wako Pure Chemical Industries, Ltd.) and 0.1% of DMSO was prepared. In each of the wells of a 96-well plate, 2 μL of each microsome from recombinant insect cell expressing different type of molecular species of CYP (CYP 2 pmol, BD Supersomes™, Nippon BD) was placed, followed by addition of 198 μL of the above-described phosphate buffer solution to start the reaction, which was incubated at 37° C. for 20 minutes. The reaction was stopped by adding 100 μL of acetonitrile (Nacalai Tesque, Inc.), and the fluorescence intensity of the obtained reaction solution was measured at the fluorescence wavelength of 520 nm with an excitation wavelength of 482 nm. A calibration curve was prepared by using the 0 μM, 0.01 μM, 0.05 μM, 0.1 μM, 0.50 μM and 1 μM solutions (100 mM phosphate buffer/acetonitrile=2/1) of the compound (1).

rat CYP3A2 = target: T2, rat CYP3A2 (Rattus norvegicus, UniProt P05183); experiment: as above; format: in vitro ADME; details: rat CYP3A2 Supersomes, CYP 2 pmol; 3 μM compound (2); 1 mM NADPH; pH 7.4; 37° C., 20 minutes; mean ± SD
T2 construct: purchased Nippon BD (BD Supersomes); host or cells: recombinant insect cells (microsomes)
T2 sequence (P05183 1-504): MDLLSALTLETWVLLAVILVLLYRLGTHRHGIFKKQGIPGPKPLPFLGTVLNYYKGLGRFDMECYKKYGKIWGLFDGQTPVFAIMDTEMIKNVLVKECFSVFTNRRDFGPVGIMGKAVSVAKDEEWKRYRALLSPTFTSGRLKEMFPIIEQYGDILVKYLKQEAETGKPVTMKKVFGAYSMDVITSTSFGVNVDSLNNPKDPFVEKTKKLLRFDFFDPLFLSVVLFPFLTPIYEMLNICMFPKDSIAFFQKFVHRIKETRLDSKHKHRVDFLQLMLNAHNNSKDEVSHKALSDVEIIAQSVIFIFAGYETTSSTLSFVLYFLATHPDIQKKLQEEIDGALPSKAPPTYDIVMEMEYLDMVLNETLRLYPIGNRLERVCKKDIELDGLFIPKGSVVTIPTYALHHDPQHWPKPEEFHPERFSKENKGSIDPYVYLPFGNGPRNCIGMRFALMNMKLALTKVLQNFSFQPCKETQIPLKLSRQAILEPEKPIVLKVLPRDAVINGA
Protocol: as §1

rat CYP3A1 = target: T3, rat CYP3A1 (Rattus norvegicus, UniProt P04800); experiment: as above; format: in vitro ADME; details: rat CYP3A1 Supersomes, CYP 2 pmol; 3 μM compound (2); 1 mM NADPH; pH 7.4; 37° C., 20 minutes; mean ± SD
T3 construct: purchased Nippon BD (BD Supersomes); host or cells: recombinant insect cells (microsomes)
T3 sequence (P04800 1-504): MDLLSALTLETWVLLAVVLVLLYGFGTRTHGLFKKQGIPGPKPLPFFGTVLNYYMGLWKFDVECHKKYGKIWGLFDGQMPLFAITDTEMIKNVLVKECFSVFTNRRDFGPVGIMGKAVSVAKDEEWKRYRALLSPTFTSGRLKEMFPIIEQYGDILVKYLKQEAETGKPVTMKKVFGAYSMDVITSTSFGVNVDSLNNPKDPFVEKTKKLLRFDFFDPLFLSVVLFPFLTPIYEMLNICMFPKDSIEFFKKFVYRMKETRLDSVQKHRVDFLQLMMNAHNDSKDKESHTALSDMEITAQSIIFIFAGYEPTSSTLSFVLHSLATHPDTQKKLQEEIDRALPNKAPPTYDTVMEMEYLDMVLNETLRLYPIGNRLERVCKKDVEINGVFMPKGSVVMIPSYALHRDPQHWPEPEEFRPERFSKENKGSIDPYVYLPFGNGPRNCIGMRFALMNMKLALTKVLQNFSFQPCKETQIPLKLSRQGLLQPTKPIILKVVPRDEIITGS
Protocol: as §1

human CYP3A4 = target: T4, human CYP3A4 (Homo sapiens, UniProt P08684); experiment: as above; format: in vitro ADME; details: human CYP3A4 Supersomes, CYP 2 pmol; 3 μM compound (2); 1 mM NADPH; pH 7.4; 37° C., 20 minutes; mean ± SD
T4 construct: purchased Nippon BD (BD Supersomes); host or cells: recombinant insect cells (microsomes)
T4 sequence (P08684 whole entry): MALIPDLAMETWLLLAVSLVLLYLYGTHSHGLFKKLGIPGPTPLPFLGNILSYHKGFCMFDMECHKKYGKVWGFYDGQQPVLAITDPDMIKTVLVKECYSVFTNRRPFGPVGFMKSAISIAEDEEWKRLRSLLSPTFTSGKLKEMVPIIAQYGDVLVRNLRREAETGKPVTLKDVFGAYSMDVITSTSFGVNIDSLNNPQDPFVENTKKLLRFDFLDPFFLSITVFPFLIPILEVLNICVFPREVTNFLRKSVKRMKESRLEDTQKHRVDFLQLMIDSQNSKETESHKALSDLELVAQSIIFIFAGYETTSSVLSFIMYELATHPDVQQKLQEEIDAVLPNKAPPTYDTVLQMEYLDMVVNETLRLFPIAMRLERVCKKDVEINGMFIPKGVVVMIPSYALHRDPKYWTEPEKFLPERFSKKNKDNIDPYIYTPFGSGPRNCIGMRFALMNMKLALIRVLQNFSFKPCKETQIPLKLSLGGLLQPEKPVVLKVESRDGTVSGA
Protocol: as §1

rat CYP2D1 = target: T5, rat CYP2D1 (Rattus norvegicus, UniProt P10633); experiment: as above; format: in vitro ADME; details: rat CYP2D1 Supersomes, CYP 2 pmol; 3 μM compound (2); 1 mM NADPH; pH 7.4; 37° C., 20 minutes; mean ± SD
T5 construct: purchased Nippon BD (BD Supersomes); host or cells: recombinant insect cells (microsomes)
T5 sequence (P10633 1-504): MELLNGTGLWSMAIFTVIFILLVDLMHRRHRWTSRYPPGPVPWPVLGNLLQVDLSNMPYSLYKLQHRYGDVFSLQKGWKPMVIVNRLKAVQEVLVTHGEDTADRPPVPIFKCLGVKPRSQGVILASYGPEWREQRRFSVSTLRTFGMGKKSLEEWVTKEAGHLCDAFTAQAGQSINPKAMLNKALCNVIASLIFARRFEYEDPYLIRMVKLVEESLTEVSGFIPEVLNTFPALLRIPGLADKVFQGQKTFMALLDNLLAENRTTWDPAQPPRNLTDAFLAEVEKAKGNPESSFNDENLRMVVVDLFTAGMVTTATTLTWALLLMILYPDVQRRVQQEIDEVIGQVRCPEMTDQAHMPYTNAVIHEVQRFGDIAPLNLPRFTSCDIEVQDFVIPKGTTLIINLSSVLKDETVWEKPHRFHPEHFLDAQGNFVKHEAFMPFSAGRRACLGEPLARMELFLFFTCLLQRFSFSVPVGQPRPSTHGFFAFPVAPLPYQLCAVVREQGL
Protocol: as §1

human and rat CYP3A = experiment: Molecular species selectivity evaluation, overall conclusion; format: in vitro ADME; details: conclusion from Tables 2 and 3
Protocol: as §1

COc1ccc(-c2c3ccc(=O)cc-3oc3cc(O)ccc23)c(C)c1 [Compound (1), 6-hydroxy-9-(4-methoxy-2-methylphenyl)-3H-xanthen-3-one]
Quantum Efficiency [1]: 85.3%

COc1ccc(-c2c3ccc(=O)cc-3oc3cc(OCc4cc(C(F)(F)F)ccc4C(F)(F)F)ccc23)c(C)c1 [Compound (2), 9-(4-methoxy-2-methylphenyl)-6-bis(2,5-trifluoromethyl)benzyloxy-3H-xanthen-3-one]
amount of the compound (1) produced by reacting the compound (2) with CYP (human CYP2E1): 0.0038 ± 0.0052 (3) pmol/min/mg protein
amount of the compound (1) produced by reacting the compound (2) with CYP (rat CYP3A2): 0.0912 ± 0.0105 (3) pmol/min/mg protein
amount of the compound (1) produced by reacting the compound (2) with CYP (rat CYP3A1): 0.2190 ± 0.0095 (3) pmol/min/mg protein
amount of the compound (1) produced by reacting the compound (2) with CYP (human CYP3A4): 2.4913 ± 0.0497 (3) pmol/min/mg protein
amount of the compound (1) produced by reacting the compound (2) with CYP (rat CYP2D1): 0.0151 ± 0.0081 (3) pmol/min/mg protein
Quantum Efficiency [1]: 20.6%
CYP molecular species selectivity as substrate (human and rat CYP3A): substrate specific to human and rat CYP3A
